# Assays:
# Type in all cases: in vivo
# Aphis gossypii = Aphis gossypii - oral test; details: 120 h, read-out: mortality in %
# Method: Solvent: 100 parts by weight acetone
# (§1) To produce a suitable preparation of active compound, 1 part by weight of active compound is mixed with the stated amount of solvent, and the concentrate is diluted with water to the desired concentration.
# 50 μl compound solution is filled in microtiter plates and 150 μl IPL41 insect medium (33%+15% sugar) is added to obtain a total volume of 200 μl per well. Afterwards the plates are sealed with parafilm through which a mixed population of the cotton aphid (Aphis gossypii) can suck on the compound preparation.
# (§2) After 5 days mortality in % is determined. 100% means all aphids have been killed and 0% means none of the aphids have been killed.
# Meloidogyne incognita = Meloidogyne incognita - test; details: 336 h, salad seedlings in sand, after 14 days, read-out: nematicidal activity (percentage of gall formation)
# Method: Meloidogyne incognita—Test
# Solvent: 125.0 parts by weight of acetone
# as §1
# Vessels are filled with sand, a solution of the active ingredient, a suspension containing eggs and larvae of the southern root-knot nematode (Meloidogyne incognita) and salad seeds. The salad seeds germinate and the seedlings grow. Galls develop in the roots.
# After 14 days the nematicidal activity is determined on the basis of the percentage of gall formation. 100% means no galls were found and 0% means the number of galls found on the roots of the treated plants was equal to that in untreated control plants.
# Diabrotica balteata = Diabrotica balteata - spray test; details: 168 h, 160 μg/well, germinated wheat seeds, larvae, after 7 days, read-out: efficacy in %
# Method: Diabrotica balteata—Spray Test
# (§3) To produce a suitable preparation of active compound, 1 part by weight of active compound is mixed with the stated amount of solvent, and the concentrate is diluted with water, containing an emulsifier concentration of 1000 ppm, to the desired concentration. Further test concentrations are prepared by dilution with emulsifier containing water.
# Soaked wheat seeds (Triticum aestivum) are placed in a multiple well plate filled with agar and some water and are incubated for 1 day to germinate (5 seeds per well). The germinated wheat seeds are sprayed with a test solution containing the desired concentration of the active ingredient. Afterwards each unit is infected with 10-20 larvae of the banded cucumber beetle (Diabrotica balteata).
# After 7 days efficacy in % is determined. 100% means all the seedlings have grown up like in the untreated, uninfected control; 0% means none of the seedlings have grown.
# Myzus persicae = Myzus persicae - oral test; details: 120 h, read-out: mortality in %
# Method: To produce a suitable preparation of active compound, 1 part by weight of active compound is mixed with the stated amount of solvent, and the concentrate is diluted with water to the desired concentration. 50 μl compound solution is filled in microtiter plates and 150 μl IPL41 insect medium (33%+15% sugar) is added to obtain a total volume of 200 μl per well. Afterwards the plates are sealed with parafilm through which a mixed population of the green peach aphid (Myzus persicae) can suck on the compound preparation.
# as §2
# Phaedon cochleariae = Phaedon cochleariae - spray test; details: in Brassica rapa, foliar, 168 h, read-out: mortality in %
# Method: Phaedon cochleariae—Spray Test
# as §3, with “solvents” for “solvent,”, “and” for “and the concentrate”
# Chinese cabbage (Brassica pekinensis) leaf disks are sprayed with a preparation of the active ingredient of the desired concentration. Once dry, the leaf disks are infested with mustard beetle larvae (Phaedon cochleariae).
# After 7 days mortality in % is determined. 100% means all beetle larvae have been killed and 0% means none of the beetle larvae have been killed.
# Spodoptera frugiperda = Spodoptera frugiperda - spray test; details: in Zea mays, 168 h, read-out: mortality in %
# Method: Spodoptera frugiperda—Spray Test
# as §3, with “solvents” for “solvent,”, “and” for “and the concentrate”
# Maize (Zea mays) leaf sections are sprayed with a preparation of the active ingredient of the desired concentration. Once dry, the leaf sections are infested with fall armyworm larvae (Spodoptera frugiperda).
# After 7 days mortality in % is determined. 100% means all caterpillars have been killed and 0% means none of the caterpillars have been killed.
# Nilaparvata lugens = Nilaparvata lugens - spray test 1; details: in Oryza sativa, 96 h, read-out: mortality in %, 500 g/ha, rice plants, after 4 days
# Method: Nilaparvata lugens—Spray Test 1
# as §3, with “solvents” for “solvent,”, “and” for “and the concentrate”
# Rice plants (Oryza sativa) are sprayed with a preparation of the active ingredient of the desired concentration and the plants are infested with the brown planthopper (Nilaparvata lugens).
# After 4 days mortality in % is determined. 100% means all planthoppers have been killed and 0% means none of the planthoppers have been killed.
# Nezara viridula = Nezara viridula - spray test 1; details: in Hordeum vulgare, 96 h, read-out: mortality in %
# Method: Nezara viridula—Spray Test 1
# as §3
# Barley plants (Hordeum vulgare) infested with larvae of the southern green stink bug (Nezara viridula) are sprayed with a test solution containing the desired concentration of the active ingredient.
# After 4 days mortality in % is determined. 100% means all the stink bugs have been killed; 0% means none of the stink bugs have been killed.
# [1] = system: Aedes aegypti strain MONHEIM; test: Aedes test (AEDSAE surface treatment & contact assay); details: 30 minutes exposure, 24 hours after contact, read-out: efficacy (mortality in percent); for mortality at 4 mg/m2: surface concentration 4 mg/m^2, glazed tile; for mortality at 20 mg/m2: surface concentration 20 mg/m^2, glazed tile
# Method: Aedes Test (AEDSAE Surface Treatment & Contact Assay)
# Solvent: Aceton+2000 ppm rapeseed oil methyl ester (RME)
# (§4) In order to produce a sufficient, active ingredient containing solution it is necessary to solve the test-compound in an acetone/RME solvent mixture. This solution is pipetted onto a glazed tile and after evaporation of the acetone, adult mosquitoes of the species Aedes aegypti strain MONHEIM are placed onto the dried surface. The exposure time is 30 minutes.
# (§5) Mortality in percent (%) is determined 24 hours after contact to the treated surface. 100% mortality means that all test-insects are dead, whereas 0% means that not a single insect died.
# Culex quinquefasciatus = test: Culex test (CULXFAS surface treatment & contact assay); details: 30 minutes exposure, 24 hours after contact, read-out: efficacy (mortality in percent); for mortality at 4 mg/m2: surface concentration 4 mg/m^2, glazed tile; for mortality at 20 mg/m2: surface concentration 20 mg/m^2, glazed tile
# Method: Culex Test (CULXFAS Surface Treatment & Contact Assay)
# Solvent: Acetone+2000 ppm rapeseed oil methyl ester (RME)
# as §4, with “Culex quinquefasciatus (Brown house mosquito)” for “Aedes aegypti strain MONHEIM”
# as §5
# [2] = system: Musca domestica strain WHO-N; test: Musca domestica test (MUSCDO surface treatment & contact assay); details: 30 minutes exposure, 24 hours after contact, read-out: efficacy (mortality in percent); for mortality at 4 mg/m2: surface concentration 4 mg/m^2, glazed tile; for mortality at 20 mg/m2: surface concentration 20 mg/m^2, glazed tile
# Method: Musca domestica Test (MUSCDO Surface Treatment & Contact Assay)
# (§6) Solvent: Aceton+2000 ppm Rapeseed oil methyl ester (RME)
# as §4, with “flies” for “mosquitoes”, “Musca domestica” for “Aedes aegypti”, “WHO-N” for “MONHEIM”
# as §5
# [3] = system: Blattella germanica strain PAULINIA; test: Blattella germanica test (BLTTGE surface treatment & contact assay); details: 30 minutes exposure, 24 hours after contact, read-out: efficacy (mortality in percent); for mortality at 4 mg/m2: surface concentration 4 mg/m^2, glazed tile; for mortality at 20 mg/m2: surface concentration 20 mg/m^2, glazed tile
# Method: Blattella germanica Test (BLTTGE Surface Treatment & Contact Assay)
# as §6
# as §4, with “animals” for “mosquitoes”, “Blattella germanica” for “Aedes aegypti”, “PAULINIA” for “MONHEIM”
# as §5
SMILES,mortality at 100 ppm (Aphis gossypii),pest or weed control at 20 ppm (Meloidogyne incognita),"pest or weed control at 160 µg/disc, 160 µg/well (Diabrotica balteata)",mortality at 20 ppm (Myzus persicae),mortality at 500 g/ha (Phaedon cochleariae),mortality at 500 g/ha (Spodoptera frugiperda),mortality at 500 g/ha (Nilaparvata lugens),mortality at 500 g/ha (Nezara viridula),mortality at 4 mg/m2 [1],mortality at 20 mg/m2 [1],mortality at 4 mg/m2 (Culex quinquefasciatus),mortality at 20 mg/m2 (Culex quinquefasciatus),mortality at 4 mg/m2 [2],mortality at 20 mg/m2 [2],mortality at 4 mg/m2 [3],mortality at 20 mg/m2 [3]
"CC(c1ncnn1-c1ncccn1)N(CC(F)F)C(=O)c1cc(Cl)cc(C(F)(F)F)c1 (centres unmarked) [Compound I-89, 3-chloro-N-(2,2-difluoroethyl)-N-[1-(2-pyrimidin-2-yl-1,2,4-triazol-3-yl)ethyl]-5-(trifluoromethyl)benzamide]",100%,100%,100%,100%,100%,100%,,,,,,,,,,
CC(c1ncnn1-c1ncccn1)N(CC1CC1)C(=O)c1cccc(Cl)c1 (centres unmarked) [Compound I-108],,90%,100%,,100%,,100%,100%,,,,,,,,
CC(c1ncnn1-c1ncccn1)N(CC1CC1)C(=O)c1ccc(Cl)cc1 (centres unmarked) [Compound I-109],,100%,100%,,,,,,,,,,,,,
CC(c1ncnn1-c1ncccn1)N(CC1CC1)C(=O)c1cc(Cl)c(Cl)c(Cl)c1 (centres unmarked) [Compound I-111],,90%,,,,,,,,,,,,,,
"CC(NC(=O)c1cc(Cl)cc(C#N)c1)c1ncnn1-c1ncccn1 (centres unmarked) [Compound I-114, 3-chloro-5-cyano-N-[1-(2-pyrimidin-2-yl-1,2,4-triazol-3-yl)ethyl]benzamide]",100%,,100%,100%,100%,100%,100%,100%,80 to 100%,80 to 100%,80 to 100%,80 to 100%,80 to 100%,80 to 100%,80 to 100%,80 to 100%
"CC(NC(=O)c1cc(Cl)cc(OC(F)(F)F)c1)c1ncnn1-c1ncccn1 (centres unmarked) [Compound I-119, 3-chloro-N-[1-(2-pyrimidin-2-yl-1,2,4-triazol-3-yl)ethyl]-5-(trifluoromethoxy)benzamide]",100%,,100%,100%,100%,100%,100%,100%,80 to 100%,80 to 100%,80 to 100%,80 to 100%,80 to 100%,80 to 100%,80 to 100%,80 to 100%

# Reference: US20200404919A1, “USE OF HETEROARYL-TRIAZOLE AND HETEROARYL-TETRAZOLE COMPOUNDS AS PESTICIDES IN PLANT PROTECTION” (Bayer Aktiengesellschaft, priority 2018, published 2020)
